Target: T1, Human complement C1s enzyme (Homo sapiens, UniProt P09871)
T1 construct: purified from human serum, Complement Technology, Inc; purchased Complement Technology, Inc; host or cells: human serum (plasma-derived native protein)
T1 sequence (P09871 438-688 limits assumed): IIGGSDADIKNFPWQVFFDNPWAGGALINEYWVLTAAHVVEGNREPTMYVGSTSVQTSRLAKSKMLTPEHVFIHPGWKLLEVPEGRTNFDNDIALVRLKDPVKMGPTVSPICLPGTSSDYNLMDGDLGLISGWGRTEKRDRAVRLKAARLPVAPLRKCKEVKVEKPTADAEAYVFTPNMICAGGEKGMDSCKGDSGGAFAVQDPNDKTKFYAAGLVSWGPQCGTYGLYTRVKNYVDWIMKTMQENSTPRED
T1 sequence (P09871 16-437 partner limits assumed): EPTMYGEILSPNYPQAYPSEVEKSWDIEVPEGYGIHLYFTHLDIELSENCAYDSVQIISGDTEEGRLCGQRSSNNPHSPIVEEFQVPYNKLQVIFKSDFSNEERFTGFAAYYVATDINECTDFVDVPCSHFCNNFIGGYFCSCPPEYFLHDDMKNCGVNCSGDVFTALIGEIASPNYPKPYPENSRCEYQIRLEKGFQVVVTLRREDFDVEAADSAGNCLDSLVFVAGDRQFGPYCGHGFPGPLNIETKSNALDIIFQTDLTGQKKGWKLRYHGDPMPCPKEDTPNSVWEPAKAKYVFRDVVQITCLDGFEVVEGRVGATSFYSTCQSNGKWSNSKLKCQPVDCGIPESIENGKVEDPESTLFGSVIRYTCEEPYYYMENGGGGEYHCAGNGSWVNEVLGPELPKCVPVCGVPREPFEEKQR
Assay: Human C1s enzyme assay
Type: biochemical
Details: human complement C1s enzyme 1.16 nM, substrate Z-L-Lys-SBzl, A405; read-out: IC50 (Stars)
Procedure, shortened: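 Thioesterase activity followed colorimetrically (DTNB, A405, 30-s reads) using 100 μM Z-L-Lys-SBzl substrate. Enzyme, human serum-derived C1s at 1.16 nM final, was incubated with test compound for 5 min, room temperature, pH 7.5 Tris buffer with 1 M NaCl. Rate-versus-concentration data fitted by nonlinear regression for IC50.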

Row | Compound | IC50
1 | O=C(Cn1c(-c2ccccc2)ncc(NC(=O)NCC2CCCCC2)c1=O)NCc1cc2cnccc2[nH]1 [Compound 76, N-((1H-pyrrolo[3,2-c]pyridine-2-yl)methyl)-2-(5-(3-(cyclohexylmethyl)ureido)-6-oxo-2-phenylpyrimidin-1(6H)-yl)acetamide] | 100 to 1000 nM
2 | O=C(Cn1c(-c2ccccc2)ncc(NCCCc2ccc(C3CC3)cc2)c1=O)NCc1cc2cnccc2[nH]1 [Compound 77, N-((1H-pyrrolo[3,2-c]pyridin-2-yl)methyl)-2-(5-((3-(4-cyclo-propylphenyl)propyl)amino)-6-oxo-2-phenylpyrimidin-1(6H)-yl)acetamide] | < 100 nM
3 | O=C(Cc1cc(NCCCc2ccccc2)ncc1-c1ccccc1)NCc1cc2cnccc2[nH]1 [Compound 80, N-((1H-pyrrolo[3,2-c]pyridine-2-yl)methyl)-2-(5-phenyl-2-((3-phenylpropyl)amino)pyridine-4-yl)acetamide] | > 1000 nM
4 | O=C(Cn1c(-c2ccccc2)ncc(-c2nc3ccc(Oc4ccccc4)cc3[nH]2)c1=O)NCc1cc2cnccc2[nH]1 [Compound 81, N-((1H-pyrrolo[3,2-c]pyridin-2-yl)methyl)-2-(6-oxo-5-(6-phenoxy-1H-benzo[d]imidazol-2-yl)-2-phenylpyrimidin-1(6H)-yl)acetamide] | > 1000 nM
5 | O=C(Cn1c(-c2ccccc2)ncc(-c2nc3ccccc3[nH]2)c1=O)NCc1cc2cnccc2[nH]1 [Compound 82, 2-(5-(1H-benzo[d]pyridine-2-yl)-6-oxo-2-phenylpyrimidin-1(6H)-yl)-N-((1H-pyrrolo[3,2-c]pyridine-2-yl)methyl)acetamide] | > 1000 nM
6 | CS(=O)(=NC#N)c1ccc(CCCNc2cnc(-c3ccccc3)n(CC(=O)NCc3cc4cnccc4[nH]3)c2=O)cc1 (stereo not drawn) [Compound 84, N-((1H-pyrrolo[3,2-c]pyridine-2-yl)methyl)-2-(5-((3-(4-(N-cyano-S-methylsulfonimidoyl)phenyl)propyl)amino)-6-oxo-2-phenylpyrimidin-1(6H)-yl)acetamide] | < 100 nM
7 | Cc1c(NCCCc2ccccc2)ccc(-c2ccccc2)c1CC(=O)NCc1cc2cnccc2[nH]1 [Compound 85, N-((1H-pyrrolo[3,2-c]pyridine-2-yl)methyl)-2-(3-methyl-4-((3-phenylpropyl)amino)-[1,1′-biphenyl]-2-yl)acetamide] | > 1000 nM
8 | O=C(Cn1c(-c2ccc(OC3COC3)cc2)ncc(NCCCc2ccccc2)c1=O)NCc1cc2cnccc2[nH]1 [Compound 86, N-((1H-pyrrolo[3,2-c]pyridine-2-yl)methyl)-2-(2-(4-(oxetan-3-yloxy)phenyl)-6-oxo-5-((3-phenylpropyl)amino)pyrimidin-1(6H)-yl)acetamide] | < 100 nM
9 | CO[C@@H]1CO[C@H]2[C@@H]1OC[C@H]2Oc1ncc(NCCCc2ccccc2)c(=O)n1CC(=O)NCc1cc2cnccc2[nH]1 [Compound 87, N-((1H-pyrrolo[3,2-c]pyridine-2-yl)methyl)-2-(2-(((3R,3aR,6R,6aR)-6-methoxyhexahydrofuro[3,2-b]furan-3-yl)oxy)-6-oxo-5-((3-phenylpropyl)amino)pyrimidin-1(6H)-yl)acetamide] | 100 to 1000 nM
10 | O=C(Cn1c(-c2ccccc2)ncc(NCCCC(=O)c2ccc(Oc3ccccc3)cc2)c1=O)NCc1cc2cnccc2[nH]1 [Compound 88, N-((1H-pyrrolo[3,2-c]pyridin-2-yl)methyl)-2-(6-oxo-5-((4-oxo-4-(4-phenoxyphenyl)but-yl)amino)-2-phenylpyrimidin-1(6H)-yl)acetamide] | < 100 nM
11 | CCOP(=O)(COc1ccc(-c2ncc(NCCCc3ccccc3)c(=O)n2CC(=O)NCc2cc3cnccc3[nH]2)cc1)OCC [Compound 89, diethyl ((4-(1-(2-(((1H-pyrrolo[3,2-c]pyridine-2-yl)methyl)amino)-2-oxoethyl)-6-oxo-5-((3-phenylpropyl)amino)-1,6-dihydropyrimidin-2-yl)phenoxy)methyl)phosphonate] | < 100 nM
12 | CO[C@@H]1CO[C@H]2[C@@H]1OC[C@H]2OCCCNc1cnc(-c2ccccc2)n(CC(=O)NCc2cc3cnccc3[nH]2)c1=O [Compound 95, N-((1H-pyrrolo[3,2-c]pyridine-2-yl)methyl)-2-(5-((3-(((3R,3aR,6R,6aR)-6-methoxyhexahydrofuro[3,2-b]furan-3-yl)oxy)propyl)amino)-6-oxo-2-phenylpyrimidin-1(6H)-yl)acetamide] | < 100 nM

Second part, the compound after the results:

Row | IC50 | Compound
13 | < 100 nM | O=C(Cn1c(-c2ccccc2)ncc(NC(=O)c2ccc(Oc3ccccc3Cl)cc2)c1=O)NCc1cc2cnccc2[nH]1 [Compound 72, N-(1-(2-(((1H-pyrrolo[3,2-c]pyridin-2-yl)methyl)amino)-2-oxoethyl)-6-oxo-2-phenyl-1,6-dihydropyrimidin-5-yl)-4-(2-chlorophenoxy)benzamide]
14 | < 100 nM | O=C(Cn1c(-c2ccccc2)ncc(NC(=O)c2ccc(C(=O)c3ccccc3)cc2)c1=O)NCc1cc2cnccc2[nH]1 [Compound 73, N-(1-(2-(((1H-pyrrolo[3,2-c]pyridin-2-yl)methyl)amino)-2-oxoethyl)-6-oxo-2-phenyl-1,6-dihydropyrimidin-5-yl)-4-benzoylbenzamide]
15 | < 100 nM | O=C(Cn1c(-c2ccccc2)ncc(NC(=O)c2ccc(Oc3ccccc3)nc2)c1=O)NCc1cc2cnccc2[nH]1 [Compound 74, N-(1-(2-(((1H-pyrrolo[3,2-c]pyridin-2-yl)methyl)amino)-2-oxoethyl)-6-oxo-2-phenyl-1,6-dihydropyrimidin-5-yl)-6-phenoxynicotinamide]
16 | < 100 nM | O=C(Cn1c(-c2ccccc2)ncc(NC(=O)c2ccc(-c3ccsc3)cc2)c1=O)NCc1cc2cnccc2[nH]1 [Compound 75, N-(1-(2-(((1H-pyrrolo[3,2-c]pyridin-2-yl)methyl)amino)-2-oxoethyl)-6-oxo-2-phenyl-1,6-dihydropyrimidin-5-yl)-4-(thiophen-3-yl)benzamide]
17 | < 100 nM | O=C(Cn1c(-c2ccccc2)ncc(NC(=O)c2ccc3c(c2)-c2ccccc2C3(F)F)c1=O)NCc1cc2cnccc2[nH]1 [Compound 78, N-(1-(2-(((1H-pyrrolo[3,2-c]pyridin-2-yl)methyl)amino)-2-oxoethyl)-6-oxo-2-phenyl-1,6-dihydropyrimidin-5-yl)-9,9-difluoro-9H-fluorene-3-carbox-amide]
18 | 100 to 1000 nM | O=C(Cn1c(-c2ccccc2)ncc(NC(=O)NCc2ccccc2)c1=O)NCc1cc2cnccc2[nH]1 [Compound 79, N-((1H-pyrrolo[3,2-c]pyridin-2-yl)methyl)-2-(5-(3-benzyl-ureido)-6-oxo-2-phenylpyr-imidin-1(6H)-yl)acetamide]
19 | > 1000 nM | O=C(Cn1c(-c2ccccc2)ncc(NC(=O)c2cc3ccc2CCc2ccc(cc2)CC3)c1=O)NCc1cc2cnccc2[nH]1 [Compound 83, N-(1-(2-(((1H-pyrrolo[3,2-c]pyridine-2-yl)methyl)amino)-2-oxoethyl)-6-oxo-2-phenyl-1,6-dihydropyrimidin-5-yl)-1,4(1,4)-dibenzenacyclohexaphane-1^2-carboxamide]
20 | < 100 nM | O=C(Cn1c(-c2ccccc2)ncc(NC(=O)CNC(=O)c2ccc(Oc3ccccc3)cc2)c1=O)NCc1cc2cnccc2[nH]1 [Compound 90, N-(2-((1-(2-(((1H-pyrrolo[3,2-c]pyridin-2-yl)methyl)amino)-2-oxoethyl)-6-oxo-2-phenyl-1,6-dihydropyrimidin-5-yl)-amino)-2-oxoethyl)-4-phenoxy-benzamide]
21 | < 100 nM | CP(=O)(O)c1ccc(CCCNc2cnc(-c3ccccc3)n(CC(=O)NCc3cc4cnccc4[nH]3)c2=O)cc1 [Compound 91, (4-(3-((1-(2-(((1H-pyrrolo[3,2-c]pyridine-2-yl)methyl)amino)-2-oxoethyl)-6-oxo-2-phenyl-1,6-dihydropyrimidin-5-yl)amino)propyl)phenyl)(methyl)phosphinic acid]
22 | < 100 nM | O=C(Cn1c(-c2ccccc2)ncc(NC(=O)c2ccc(-c3ccc(F)cc3F)cc2)c1=O)NCc1cc2cnccc2[nH]1 [Compound 92, N-(1-(2-(((1H-pyrrolo[3,2-c]pyridin-2-yl)methyl)amino)-2-oxoethyl)-6-oxo-2-phenyl-1,6-dihydropyrimidin-5-yl)-2′,4′-difluoro-[1,1′-biphenyl]-4-carboxamide]
23 | < 100 nM | O=C(Cn1c(-c2ccccc2)ncc(NC(=O)c2ccc(-c3cnco3)cc2)c1=O)NCc1cc2cnccc2[nH]1 [Compound 93, N-(1-(2-(((1H-pyrrolo[3,2-c]pyridin-2-yl)methyl)amino)-2-oxoethyl)-6-oxo-2-phenyl-1,6-dihydropyrimidin-5-yl)-4-(oxazol-5-yl)benzamide]
24 | < 100 nM | O=C(Cn1c(-c2ccccc2)ncc(NC(=O)c2ccc(Oc3nccs3)cc2)c1=O)NCc1cc2cnccc2[nH]1 [Compound 94, N-(1-(2-(((1H-pyrrolo[3,2-c]pyridin-2-yl)methyl)amino)-2-oxoethyl)-6-oxo-2-phenyl-1,6-dihydropyrimidin-5-yl)-4-(thiazol-2-yloxy)benzamide]

Source: patent US20260184707A1, “PHARMACEUTICAL COMPOUNDS FOR THE TREATMENT OF COMPLEMENT MEDIATED DISORDERS” (ALEXION PHARMACEUTICALS, INC., priority 2022, published 2026)
